{"source": "ChEMBL document CHEMBL2046317", "about": "“A-ring dihalogenation increases the cellular activity of combretastatin-templated tetrazoles” (ACS Med Chem Lett, 2012)", "key": {"SK-OV-3 [1]": {"tested_on": "SK-OV-3", "assay": "Growth inhibition of human SKOV3 cells after 48 hrs by SRB assay", "type": "functional, cell-based", "conditions": "SK-OV-3, 48 h"}, "Bos taurus": {"species": "Bos taurus", "assay": "Inhibition of purified bovine tubulin polymerization at 5 uM measured 30 secs intervals for 60 mins by spectrophotometer analysis relative to control"}, "MRC5": {"tested_on": "MRC5", "assay": "Growth inhibition of human MRC5 cells after 48 hrs by SRB assay", "type": "cell-based", "conditions": "MRC5, 48 h"}, "A549": {"tested_on": "A549", "assay": "Growth inhibition of human A549 cells after 48 hrs by SRB assay", "type": "functional, cell-based", "conditions": "A549, 48 h"}, "DLD-1": {"tested_on": "DLD-1", "assay": "Growth inhibition of human DLD1 cells after 48 hrs by SRB assay", "type": "functional, cell-based", "conditions": "DLD-1, 48 h"}, "HT-29": {"tested_on": "HT-29", "assay": "Growth inhibition of combretastatin-resistant human HT-29 cells after 48 hrs by SRB assay", "type": "functional, cell-based", "conditions": "HT-29, 48 h"}, "HUVEC": {"tested_on": "HUVEC", "assay": "Antivascular activity against HUVEC after 24 hrs by xCELLigence assays", "type": "functional, cell-based", "conditions": "Homo sapiens"}, "SK-OV-3 [2]": {"tested_on": "SK-OV-3", "assay": "Cell cycle arrest in human SKOV3 cells assessed as accumulation at G2/M phase at 5 nM by FACS analysis", "type": "functional"}, "MCF7": {"tested_on": "MCF7", "assay": "Growth inhibition of human MCF7 cells after 48 hrs by SRB assay", "type": "functional, cell-based", "conditions": "MCF7, 48 h"}, "SK-OV-3 [3]": {"tested_on": "SK-OV-3", "assay": "Growth inhibition of paclitaxel-resistant human SKOV3 cells after 48 hrs by SRB assay", "type": "functional, cell-based", "conditions": "SK-OV-3, 48 h"}, "PC-3": {"tested_on": "PC-3", "assay": "Growth inhibition of human PC3 cells after 48 hrs by SRB assay", "type": "functional, cell-based", "conditions": "PC-3, 48 h"}, "[4]": {"assay": "Inhibition of tubulin polymerization"}, "SK-OV-3 [5]": {"tested_on": "SK-OV-3", "assay": "Cell cycle arrest in human SKOV3 cells assessed as accumulation at sub-G1 phase at 5 nM by FACS analysis", "type": "functional"}}}
{"molecule": "COc1ccc(-c2nnnn2-c2cc(Br)c(OC)c(Br)c2)cc1O", "values": [{"measurement": "IC50", "setting": "SK-OV-3 [1]", "result": 6.1, "unit": "nM"}, {"measurement": "fold change (FC)", "setting": "Bos taurus", "result": 1.5}, {"measurement": "IC50", "setting": "MRC5", "result": 5.7, "unit": "nM"}, {"measurement": "IC50", "setting": "A549", "result": 21, "unit": "nM"}, {"measurement": "IC50", "setting": "DLD-1", "result": 8.2, "unit": "nM"}, {"measurement": "IC50", "setting": "HT-29", "result": "> 500", "unit": "nM"}, {"measurement": "IC50", "setting": "HUVEC", "result": 6.6, "unit": "nM"}, {"measurement": "Activity", "setting": "SK-OV-3 [2]", "result": 40, "unit": "%"}, {"measurement": "IC50", "setting": "MCF7", "result": 7, "unit": "nM"}, {"measurement": "IC50", "setting": "SK-OV-3 [3]", "result": 5.6, "unit": "nM"}, {"measurement": "IC50", "setting": "PC-3", "result": 2.9, "unit": "nM"}]}
{"molecule": "COc1ccc(-c2nnnn2-c2cc(OC)c(OC)c(OC)c2)cc1O", "values": [{"measurement": "IC50", "setting": "SK-OV-3 [1]", "result": 9.5, "unit": "nM"}, {"measurement": "fold change (FC)", "setting": "Bos taurus", "result": 2.9}, {"measurement": "IC50", "setting": "MRC5", "result": 12, "unit": "nM"}, {"measurement": "IC50", "setting": "A549", "result": 22, "unit": "nM"}, {"measurement": "IC50", "setting": "DLD-1", "result": 24, "unit": "nM"}, {"measurement": "IC50", "setting": "HT-29", "result": "> 500", "unit": "nM"}, {"measurement": "IC50", "setting": "HUVEC", "result": 13.6, "unit": "nM"}, {"measurement": "Activity", "setting": "SK-OV-3 [2]", "result": 25, "unit": "%"}, {"measurement": "IC50", "setting": "MCF7", "result": 21, "unit": "nM"}, {"measurement": "IC50", "setting": "SK-OV-3 [3]", "result": 11, "unit": "nM"}, {"measurement": "IC50", "setting": "PC-3", "result": 9, "unit": "nM"}]}
{"molecule": "COc1ccc(-c2nnnn2-c2cc(I)c(OC)c(I)c2)cc1O", "values": [{"measurement": "IC50", "setting": "SK-OV-3 [1]", "result": 2.6, "unit": "nM"}, {"measurement": "fold change (FC)", "setting": "Bos taurus", "result": 1.7}, {"measurement": "IC50", "setting": "MRC5", "result": 2.2, "unit": "nM"}, {"measurement": "IC50", "setting": "A549", "result": 2.8, "unit": "nM"}, {"measurement": "IC50", "setting": "DLD-1", "result": 2.4, "unit": "nM"}, {"measurement": "IC50", "setting": "HT-29", "result": 513, "unit": "nM"}, {"measurement": "IC50", "setting": "HUVEC", "result": 2.4, "unit": "nM"}, {"measurement": "Activity", "setting": "SK-OV-3 [2]", "result": 89, "unit": "%"}, {"measurement": "IC50", "setting": "MCF7", "result": 1.9, "unit": "nM"}, {"measurement": "IC50", "setting": "SK-OV-3 [3]", "result": 1.4, "unit": "nM"}, {"measurement": "IC50", "setting": "PC-3", "result": 0.5, "unit": "nM"}]}
{"molecule": "COc1ccc(/C=C\\c2cc(Br)c(OC)c(Br)c2)cc1O", "values": [{"measurement": "IC50", "setting": "SK-OV-3 [1]", "result": 5, "unit": "nM"}, {"measurement": "IC50", "setting": "HUVEC", "result": 3, "unit": "nM"}, {"measurement": "Activity", "setting": "SK-OV-3 [2]", "result": 52, "unit": "%"}]}
{"molecule": "COc1ccc(-c2nnnn2-c2cc(OC)c(OC)c(OC)c2)cc1N", "values": [{"measurement": "IC50", "setting": "[4]", "result": 2000, "unit": "nM"}]}
{"molecule": "COc1ccc(/C=C\\c2cc(I)c(OC)c(I)c2)cc1O", "values": [{"measurement": "IC50", "setting": "SK-OV-3 [1]", "result": 5, "unit": "nM"}, {"measurement": "IC50", "setting": "HUVEC", "result": 1.9, "unit": "nM"}, {"measurement": "Activity", "setting": "SK-OV-3 [2]", "result": 84, "unit": "%"}]}
{"molecule": "COc1ccc(/C=C\\c2cc(OC)c(OC)c(OC)c2)cc1O", "note": "[COMBRETASTATIN A4]", "values": [{"measurement": "fold change (FC)", "setting": "Bos taurus", "result": 3}, {"measurement": "IC50", "setting": "MRC5", "result": 2.8, "unit": "nM"}, {"measurement": "IC50", "setting": "A549", "result": 7.9, "unit": "nM"}, {"measurement": "IC50", "setting": "DLD-1", "result": 3.3, "unit": "nM"}, {"measurement": "IC50", "setting": "HT-29", "result": 538, "unit": "nM"}, {"measurement": "Activity", "setting": "SK-OV-3 [2]", "result": 31, "unit": "%"}, {"measurement": "IC50", "setting": "MCF7", "result": 3, "unit": "nM"}, {"measurement": "IC50", "setting": "SK-OV-3 [3]", "result": 4.2, "unit": "nM"}, {"measurement": "Activity", "setting": "SK-OV-3 [5]", "result": "<5", "unit": "%"}, {"measurement": "IC50", "setting": "PC-3", "result": 2.9, "unit": "nM"}]}
